# Measurements from article PMC13192270, “RhlR quorum-sensing receptor ligand sensitivity regulates the differential expression of phenazine genes in Pseudomonas aeruginosa” (Journal of Bacteriology, 2026).
# Residue numbers refer to the chain shown, from its start. pEC50: −log10 of the molar value.
# Columns and labels:
# RhlR A44W = molecular target: T1, RhlR A44W (Pseudomonas aeruginosa, UniProt P54292, A44W); test: E. coli prhlA-luxCDABE luciferase reporter assay; type: cell-based; settings: even at the highest dose of C4HSL tested
# T1 construct: expressed in transfected cells; host or cells: E. coli carrying pBAD-A-rhlR mutant, pCS26-prhlA-luxCDABE and pACYC-pqsE or empty pACYC
# Excerpt: Previous analysis of the RhlR LBP focused on highly conserved residues that were known from other AHL-binding proteins to be important contacts for AHL molecules, particularly the lactone head group. We performed conservation analyses on 300 LuxR-type receptors to determine variable and moderately conserved residues in the LBP (Fig. 1B) and, in conjunction with our previously determined experimental structure of WT RhlR bound to the synthetic agonist mBTL, used for docking C4- and C6HSL. Based on our docking simulations, C4- and C6HSL occupy a similar position in the LBP as mBTL, a highly efficacious activator of RhlR (Fig. 1C; Fig. S1). We targeted residues A44, G46, T58, L69, Y72, D81, I84, W96, and W108 (Fig. 1B and C). These residues were selected because of their proximity to the acyl tail of C4HSL, as well as the differences in conservation that are observed at these sites. […] Transcription was monitored by light production via the expression of the luxCDABE operon controlled by the RhlR-dependent promoter of rhlA. […]
# The range of responses to substitutions is best highlighted by changes at residue T58 (Fig. 2A). […] Indeed, of the LuxR-AHL experimentally determined structures, this region of the LBP is typically occupied by the acyl tail of long-chain AHLs or a hydrophobic residue ([5], [27], [29], [30], [42], [43]), a point we return to in the discussion. […]
# RhlR (T58L) = molecular target: T2, RhlR (T58L) (Pseudomonas aeruginosa, UniProt P54292, T58L); test: E. coli prhlA-luxCDABE luciferase reporter assay; type: cell-based, Escherichia coli
# T2 construct: expressed in transfected cells; host or cells: E. coli carrying pBAD-A-rhlR mutant, pCS26-prhlA-luxCDABE and pACYC-pqsE or empty pACYC
# T2 sequence (P54292 1-241 T58L): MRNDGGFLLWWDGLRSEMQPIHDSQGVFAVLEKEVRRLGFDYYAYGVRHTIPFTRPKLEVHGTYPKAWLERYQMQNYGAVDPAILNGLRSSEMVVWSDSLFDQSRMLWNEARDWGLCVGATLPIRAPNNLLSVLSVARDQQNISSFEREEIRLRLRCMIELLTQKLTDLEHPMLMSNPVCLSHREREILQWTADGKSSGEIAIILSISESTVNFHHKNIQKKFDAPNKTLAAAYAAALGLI
# Excerpt: (§1) Previous analysis of the RhlR LBP focused on highly conserved residues that were known from other AHL-binding proteins to be important contacts for AHL molecules, particularly the lactone head group. We performed conservation analyses on 300 LuxR-type receptors to determine variable and moderately conserved residues in the LBP (Fig. 1B) and, in conjunction with our previously determined experimental structure of WT RhlR bound to the synthetic agonist mBTL, used for docking C4- and C6HSL. Based on our docking simulations, C4- and C6HSL occupy a similar position in the LBP as mBTL, a highly efficacious activator of RhlR (Fig. 1C; Fig. S1). We targeted residues A44, G46, T58, L69, Y72, D81, I84, W96, and W108 (Fig. 1B and C). These residues were selected because of their proximity to the acyl tail of C4HSL, as well as the differences in conservation that are observed at these sites. We used an E. coli luciferase reporter assay to monitor ligand-dependent activation of WT RhlR and RhlR variants. WT RhlR and RhlR variants were expressed under the control of an arabinose-inducible promoter (Fig. S2). Transcription was monitored by light production via the expression of the luxCDABE operon controlled by the RhlR-dependent promoter of rhlA. Binding of RhlR to the rhlA promoter is highly dependent on the C4HSL-RhlR interaction, based on ChIP-seq analyses performed in P. aeruginosa as well as previously published E. coli reporter systems ([34], [39]). After expressing WT RhlR and RhlR variants in the E. coli reporter system, we performed dose response assays using C4HSL to calculate the concentration of C4HSL required to activate the reporter system to 50% maximum levels (EC50 value; Table 1). As expected, transcription activation by WT RhlR increased with increased C4HSL levels, with an EC50 value of ~2 µM. We observed a range of responses. Figure 1C depicts the targeted residues, which are colored based on the effect of amino acid substitution.
# (§2) RhlR requires the accessory-binding protein, PqsE, for maximal activity. To determine if PqsE expression altered the activation of RhlR variants, we assessed AHL-dependent RhlR activation of the prhlA-luxCDABE reporter in the presence of a third plasmid that constitutively expresses PqsE in E. coli. […] RhlR variants that were still active but with increased EC50 values for C4HSL could have their activity enhanced by PqsE. […] Thus, alterations to the LBP can diminish the additive effect of PqsE-dependent transcription, indicating a potential role of allosteric conformational changes dependent on ligand occupancy. […] RhlR variants at residues I84 and W108 could not be activated by C4HSL, and thus, light levels remained low at all concentrations that were tested. Unlike the aforementioned variants, RhlR I84M/W and RhlR W108F/Y were activated by the expression of PqsE (Fig. S4).
# (§3) All E. coli strains in this study were grown overnight with shaking in 5 mL Luria-Bertani (LB) media supplemented with 100 µg/mL ampicillin, 50 µg/mL kanamycin, and 15 µg/mL tetracycline at 37°C overnight. Overnight cultures were diluted 1:100 into fresh media, grown at 37°C with shaking for 2 h until reaching OD600 = 0.4. Cultures were induced with a final concentration of 0.1% arabinose, and 198 μL of the induced culture was mixed with 2 μL of C4HSL dilutions in a clear-bottom, black-opaque 96-well plate (Corning) and grown at 37°C with shaking for 4 h. The C4HSL dilution series was performed 1:1 in dimethyl sulfoxide (DMSO) with a top final concentration of 10 μM. Luminescence and optical density were recorded using a Glomax (Promega) plate reader.
# RhlR (T58F) = molecular target: T3, RhlR (T58F) (Pseudomonas aeruginosa, UniProt P54292, T58F); test: E. coli prhlA-luxCDABE luciferase reporter assay; type: cell-based, Escherichia coli
# T3 construct: expressed in transfected cells; host or cells: E. coli carrying pBAD-A-rhlR mutant, pCS26-prhlA-luxCDABE and pACYC-pqsE or empty pACYC
# T3 sequence (P54292 1-241 T58F): T2 sequence (P54292 1-241 T58L) with L58F
# Excerpt: as §1, §2, §3
# pyocyanin production = settings: cited from earlier work
smiles,measurement,setting,value
"CCCC(=O)N[C@H]1CCOC1=O [C4HSL, N-butyryl-L-homoserine lactone]",activation by C4HSL in the reporter system,RhlR A44W,not activated
same,pEC50,RhlR (T58L); Vector (no pqsE),6.07
same,pEC50,RhlR (T58L); pqsE co-expressed,7.00
same,pEC50,RhlR (T58F); Vector (no pqsE),5.49
same,pEC50,RhlR (T58F); pqsE co-expressed,6.70
same,C4HSL concentration above which pyocyanin production is lost,pyocyanin production,> 5 µM
same,C4HSL concentration below which pyocyanin production is lost,pyocyanin production,< 500 nM
